Assay results from ChEMBL document CHEMBL5543142, “Discovery of YFJ-36: Design, Synthesis, and Antibacterial Activities of Catechol-Conjugated β-Lactams against Gram-Negative Bacteria” (J Med Chem, 2024).
≈ marks a conversion by molar mass, not a printed value.

Tests used:
[1] = system: Pseudomonas aeruginosa; test: Antibacterial activity against IMP-4 producing multidrug-resistant Pseudomonas aeruginosa clinical isolate 19-17 assessed as inhibition of bacterial growth incubated for 18 to 20 hrs by two fold serial dilution assay; assay type: functional; details: time 18-20 hrs
[2] = system: Escherichia coli; test: Antibacterial activity against Escherichia coli ATCC-35218 infected in ICR mouse assessed as inhibition of bacterial growth at iv after 1 and 5 hour of post-infection measured after 7 days; assay type: functional; details: ATCC-35218, 168 h, time 7 day
[3] = molecular target: hERG (KCNH2) (Homo sapiens, UniProt Q12809); test: Inhibition of hERG at 40 uM by whole cell Qpatch assay relative to control; assay type: toxicity
hERG (KCNH2), sequence (Q12809 whole entry): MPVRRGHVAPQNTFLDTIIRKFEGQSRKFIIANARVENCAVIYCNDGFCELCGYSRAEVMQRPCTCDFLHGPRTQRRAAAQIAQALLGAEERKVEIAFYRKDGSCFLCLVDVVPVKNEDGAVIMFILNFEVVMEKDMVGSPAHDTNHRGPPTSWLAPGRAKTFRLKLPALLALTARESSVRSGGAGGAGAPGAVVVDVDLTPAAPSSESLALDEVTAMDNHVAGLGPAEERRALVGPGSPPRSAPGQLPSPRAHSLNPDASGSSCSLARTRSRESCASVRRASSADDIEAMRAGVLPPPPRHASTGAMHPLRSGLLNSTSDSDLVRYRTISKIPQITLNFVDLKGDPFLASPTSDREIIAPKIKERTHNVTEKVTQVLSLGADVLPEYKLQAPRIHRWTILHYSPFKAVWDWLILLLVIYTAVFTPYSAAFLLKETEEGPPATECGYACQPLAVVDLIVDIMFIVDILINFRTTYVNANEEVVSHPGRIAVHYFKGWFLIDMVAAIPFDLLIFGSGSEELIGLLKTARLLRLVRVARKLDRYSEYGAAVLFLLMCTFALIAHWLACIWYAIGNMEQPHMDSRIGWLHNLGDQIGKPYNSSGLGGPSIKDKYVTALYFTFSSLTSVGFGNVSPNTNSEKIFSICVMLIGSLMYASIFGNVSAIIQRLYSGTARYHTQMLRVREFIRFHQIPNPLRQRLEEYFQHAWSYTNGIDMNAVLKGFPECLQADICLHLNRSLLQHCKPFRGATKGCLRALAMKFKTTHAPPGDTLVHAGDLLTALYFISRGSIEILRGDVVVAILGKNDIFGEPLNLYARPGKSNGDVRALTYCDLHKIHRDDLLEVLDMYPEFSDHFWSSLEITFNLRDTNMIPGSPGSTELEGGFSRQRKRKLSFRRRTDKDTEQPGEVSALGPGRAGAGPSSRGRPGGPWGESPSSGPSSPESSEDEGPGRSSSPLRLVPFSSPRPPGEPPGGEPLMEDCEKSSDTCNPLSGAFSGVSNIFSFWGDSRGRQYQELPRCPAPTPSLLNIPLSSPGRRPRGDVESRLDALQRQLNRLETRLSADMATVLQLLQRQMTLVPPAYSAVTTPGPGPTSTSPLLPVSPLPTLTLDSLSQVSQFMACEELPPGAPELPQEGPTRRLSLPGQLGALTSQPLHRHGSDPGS

[4] = system: Klebsiella pneumoniae; test: Antibacterial activity against KPC-2 producing multidrug-resistant Klebsiella pneumoniae clinical isolate 15-5 assessed as inhibition of bacterial growth incubated for 18 to 20 hrs by two fold serial dilution assay; assay type: functional; details: time 18-20 hrs
[5] = system: Klebsiella pneumoniae; test: Antibacterial activity against KPC-2 producing multidrug-resistant Klebsiella pneumoniae clinical isolate 15-1 assessed as inhibition of bacterial growth incubated for 18 to 20 hrs by two fold serial dilution assay; assay type: functional; details: time 18-20 hrs
[6] = system: Acinetobacter baumannii; test: Antibacterial activity against OXA-23 producing multidrug-resistant Acinetobacter baumannii clinical isolate 17-7 assessed as inhibition of bacterial growth incubated for 18 to 20 hrs by two fold serial dilution assay; assay type: functional; details: time 18-20 hrs
[7] = system: Klebsiella pneumoniae; test: Antibacterial activity against Klebsiella pneumoniae ATCC BAA-1898 assessed as inhibition of bacterial growth incubated for 18 to 20 hrs in presence of CAMHB medium by two fold serial dilution assay; assay type: functional; details: time 18-20 hrs
[8] = system: Klebsiella pneumoniae; test: Antibacterial activity against Klebsiella pneumoniae ATCC BAA-1898 assessed as inhibition of bacterial growth incubated for 18 to 20 hrs in presence of iron-depleted CAMHB medium by two fold serial dilution assay; assay type: functional; details: time 18-20 hrs
[9] = system: Pseudomonas aeruginosa; test: Antibacterial activity against IMP-4 producing multidrug-resistant Pseudomonas aeruginosa clinical isolate 17-1 assessed as inhibition of bacterial growth incubated for 18 to 20 hrs by two fold serial dilution assay; assay type: functional; details: time 18-20 hrs
[10] = system: Escherichia coli; test: Antibacterial activity against Escherichia coli ATCC-35218 assessed as inhibition of bacterial growth incubated for 18 to 20 hrs in presence of iron-depleted CAMHB medium by two fold serial dilution assay; assay type: functional; details: time 18-20 hrs
[11] = system: Klebsiella pneumoniae; test: Antibacterial activity against KPC-2 producing multidrug-resistant Klebsiella pneumoniae clinical isolate 15-2 assessed as inhibition of bacterial growth incubated for 18 to 20 hrs by two fold serial dilution assay; assay type: functional; details: time 18-20 hrs
[12] = system: Acinetobacter baumannii; test: Antibacterial activity against OXA-23 producing multidrug-resistant Acinetobacter baumannii clinical isolate 17-8 assessed as inhibition of bacterial growth incubated for 18 to 20 hrs by two fold serial dilution assay; assay type: functional; details: time 18-20 hrs
[13] = system: Acinetobacter baumannii; test: Antibacterial activity against multidrug-resistant Acinetobacter baumannii BM-2023-D2-010 infected in ICR mouse assessed as inhibition of bacterial growth by measuring its effective dose at iv after 1 and 5 hour of post-infection measured after 7 days; assay type: functional; details: BM-2023-D2-010, 168 h, time 7 day
[14] = system: Klebsiella pneumoniae; test: Antibacterial activity against KPC-2 producing multidrug-resistant Klebsiella pneumoniae clinical isolate 15-3 assessed as inhibition of bacterial growth incubated for 18 to 20 hrs by two fold serial dilution assay; assay type: functional; details: time 18-20 hrs
[15] = system: Escherichia coli; test: Antibacterial activity against Escherichia coli ATCC-35218 assessed as inhibition of bacterial growth incubated for 18 to 20 hrs in presence of CAMHB medium by two fold serial dilution assay; assay type: functional; details: time 18-20 hrs
[16] = system: Acinetobacter baumannii; test: Antibacterial activity against OXA-23 producing multidrug-resistant Acinetobacter baumannii clinical isolate 17-6 assessed as inhibition of bacterial growth incubated for 18 to 20 hrs by two fold serial dilution assay; assay type: functional; details: time 18-20 hrs
[17] = system: Escherichia coli; test: Antibacterial activity against ESBL-producing multidrug-resistant Escherichia coli clinical isolate 14-1 assessed as inhibition of bacterial growth incubated for 18 to 20 hrs by two fold serial dilution assay; assay type: functional; details: time 18-20 hrs
[18] = system: Acinetobacter baumannii; test: Antibacterial activity against OXA-23 producing multidrug-resistant Acinetobacter baumannii clinical isolate 17-2 assessed as inhibition of bacterial growth incubated for 18 to 20 hrs by two fold serial dilution assay; assay type: functional; details: time 18-20 hrs
[19] = system: Acinetobacter baumannii; test: Antibacterial activity against OXA-23 producing multidrug-resistant Acinetobacter baumannii clinical isolate 17-3 assessed as inhibition of bacterial growth incubated for 18 to 20 hrs by two fold serial dilution assay; assay type: functional; details: time 18-20 hrs
[20] = system: Escherichia coli; test: Antibacterial activity against Escherichia coli ATCC35218 assessed as inhibition of bacterial growth incubated for 18 to 20 hrs by two fold serial dilution assay; assay type: functional; details: time 18-20 hrs
[21] = molecular target: Voltage-gated inwardly rectifying potassium channel KCNH2 (Homo sapiens, UniProt Q12809); test: Inhibition of hERG by whole cell Qpatch assay; assay type: toxicity
Voltage-gated inwardly rectifying potassium channel KCNH2, sequence (Q12809 whole entry): as above

[22] = system: Escherichia coli; test: Antibacterial activity against ESBL-producing multidrug-resistant Escherichia coli clinical isolate 14-4 assessed as inhibition of bacterial growth incubated for 18 to 20 hrs by two fold serial dilution assay; assay type: functional; details: time 18-20 hrs
[23] = system: Pseudomonas aeruginosa; test: Antibacterial activity against IMP-4 producing multidrug-resistant Pseudomonas aeruginosa clinical isolate 19-1 assessed as inhibition of bacterial growth incubated for 18 to 20 hrs by two fold serial dilution assay; assay type: functional; details: time 18-20 hrs
[24] = system: Escherichia coli; test: Antibacterial activity against Escherichia coli NCTC-13353 assessed as inhibition of bacterial growth incubated for 18 to 20 hrs in presence of CAMHB medium by two fold serial dilution assay; assay type: functional; details: time 18-20 hrs
[25] = system: Acinetobacter baumannii; test: Antibacterial activity against OXA-23 producing multidrug-resistant Acinetobacter baumannii clinical isolate 17-5 assessed as inhibition of bacterial growth incubated for 18 to 20 hrs by two fold serial dilution assay; assay type: functional; details: time 18-20 hrs
[26] = system: Acinetobacter baumannii; test: Antibacterial activity against multidrug-resistant Acinetobacter baumannii BM-2023-D2-010 infected in ICR mouse assessed as inhibition of bacterial growth at iv after 1 and 5 hour of post-infection measured after 7 days; assay type: functional; details: BM-2023-D2-010, 168 h, time 7 day
[27] = system: Escherichia coli; test: Antibacterial activity against Escherichia coli NCTC-13353 assessed as inhibition of bacterial growth incubated for 18 to 20 hrs in presence of iron-depleted CAMHB medium by two fold serial dilution assay; assay type: functional; details: time 18-20 hrs
[28] = Plasma protein binding in mouse incubated for 35 mins by LC-MS/MS analysis; assay type: ADME, cell-free; details: read-out: PPB (converted)
[29] = system: Pseudomonas aeruginosa; test: Antibacterial activity against IMP-4 producing multidrug-resistant Pseudomonas aeruginosa clinical isolate 17-13 assessed as inhibition of bacterial growth incubated for 18 to 20 hrs by two fold serial dilution assay; assay type: functional; details: time 18-20 hrs
[30] = system: Escherichia coli; test: Antibacterial activity against ESBL-producing multidrug-resistant Escherichia coli clinical isolate 14-2 assessed as inhibition of bacterial growth incubated for 18 to 20 hrs by two fold serial dilution assay; assay type: functional; details: time 18-20 hrs
[31] = system: Pseudomonas aeruginosa; test: Antibacterial activity against IMP-4 producing multidrug-resistant Pseudomonas aeruginosa clinical isolate 19-5 assessed as inhibition of bacterial growth incubated for 18 to 20 hrs by two fold serial dilution assay; assay type: functional; details: time 18-20 hrs
[32] = system: Acinetobacter baumannii; test: Antibacterial activity against OXA-23 producing multidrug-resistant Acinetobacter baumannii clinical isolate 15-3 assessed as inhibition of bacterial growth incubated for 18 to 20 hrs by two fold serial dilution assay; assay type: functional; details: time 18-20 hrs
[33] = system: Acinetobacter baumannii; test: Antibacterial activity against OXA-23 producing multidrug-resistant Acinetobacter baumannii clinical isolate 15-4 assessed as inhibition of bacterial growth incubated for 18 to 20 hrs by two fold serial dilution assay; assay type: functional; details: time 18-20 hrs
[34] = system: Pseudomonas aeruginosa; test: Antibacterial activity against IMP-4 producing multidrug-resistant Pseudomonas aeruginosa clinical isolate 15-1 assessed as inhibition of bacterial growth incubated for 18 to 20 hrs by two fold serial dilution assay; assay type: functional; details: time 18-20 hrs
[35] = system: Pseudomonas aeruginosa; test: Antibacterial activity against IMP-4 producing multidrug-resistant Pseudomonas aeruginosa clinical isolate 15-5 assessed as inhibition of bacterial growth incubated for 18 to 20 hrs by two fold serial dilution assay; assay type: functional; details: time 18-20 hrs
[36] = system: Acinetobacter baumannii; test: Antibacterial activity against OXA-23 producing multidrug-resistant Acinetobacter baumannii clinical isolate 15-1 assessed as inhibition of bacterial growth incubated for 18 to 20 hrs by two fold serial dilution assay; assay type: functional; details: time 18-20 hrs
[37] = system: Pseudomonas aeruginosa; test: Antibacterial activity against Pseudomonas aeruginosa ATCC 27853 assessed as inhibition of bacterial growth incubated for 18 to 20 hrs by two fold serial dilution assay; assay type: functional; details: time 18-20 hrs
[38] = system: Pseudomonas aeruginosa; test: Antibacterial activity against IMP-4 producing multidrug-resistant Pseudomonas aeruginosa clinical isolate 15-4 assessed as inhibition of bacterial growth incubated for 18 to 20 hrs by two fold serial dilution assay; assay type: functional; details: time 18-20 hrs
[39] = system: Acinetobacter baumannii; test: Antibacterial activity against OXA-23 producing multidrug-resistant Acinetobacter baumannii clinical isolate 15-5 assessed as inhibition of bacterial growth incubated for 18 to 20 hrs by two fold serial dilution assay; assay type: functional; details: time 18-20 hrs
[40] = system: Acinetobacter baumannii; test: Antibacterial activity against OXA-23 producing multidrug-resistant Acinetobacter baumannii clinical isolate 15-2 assessed as inhibition of bacterial growth incubated for 18 to 20 hrs by two fold serial dilution assay; assay type: functional; details: time 18-20 hrs

| SMILES | MIC [1] [µg/mL] | MIC [2] [µg/mL] | MIC [4] [µg/mL] | MIC [5] [µg/mL] | MIC [6] [µg/mL] | MIC [7] [µg/mL] | MIC [8] [µg/mL] | MIC [9] [µg/mL] | MIC [10] [µg/mL] | MIC [11] [µg/mL] | MIC [12] [µg/mL] | ED50 [13] [mg/kg] | MIC [14] [µg/mL] | MIC [15] [µg/mL] | MIC [16] [µg/mL] | MIC [17] [µg/mL] | MIC [18] [µg/mL] | MIC [19] [µg/mL] | MIC [20] [µg/mL] | IC50 [21] [nM] | also measured |
| --- | --- | --- | --- | --- | --- | --- | --- | --- | --- | --- | --- | --- | --- | --- | --- | --- | --- | --- | --- | --- | --- |
| Nc1nc(/C(=N/O[C@@H](C(=O)O)C2CCC(F)(F)CC2)C(=O)N[C@@H]2C(=O)N3C(C(=O)O)=C(CSCCNC(=O)c4ccc(O)c(O)c4Cl)CS[C@H]23)cs1.O=C(O)C(F)(F)F | 0.25 | 0.06 | 0.5 | 0.25 | 0.5 | 4 | 2 | 8 | ≤ 0.03 | 0.25 | 0.5 | 7.3 | 1 | 1 | 1 | 0.25 | 0.5 | 0.25 | 0.25 | > 40000 | inhibition at 40 µM [3]: 6.67%; MIC [22]: 0.125 µg/mL; MIC [23]: 2 µg/mL; MIC [24]: 1 µg/mL; MIC [25]: 0.25 µg/mL; MIC [26]: 0.5 µg/mL; MIC [27]: 0.25 µg/mL; fraction unbound at 35 min [28]: 0.105; MIC [29]: ≤ 0.03 µg/mL; MIC [30]: 0.5 µg/mL; MIC [31]: 1 µg/mL |
| CC(C)(O/N=C(\C(=O)N[C@@H]1C(=O)N2C(C(=O)[O-])=C(C[N+]3(CCNC(=O)c4ccc(O)c(O)c4Cl)CCCC3)CS[C@H]12)c1csc(N)n1)C(=O)O [CEFIDEROCOL] | 0.5 (≈ 0.665 µM) | 0.12 (≈ 0.16 µM) | 8 (≈ 10.6 µM) | 8 (≈ 10.6 µM) | 2 (≈ 2.66 µM) | 8 | 2 | 8 (≈ 10.6 µM) | 0.06 | 4 (≈ 5.32 µM) | 1 (≈ 1.33 µM) | 7 | 8 (≈ 10.6 µM) | 1 | 1 (≈ 1.33 µM) | 0.125 (≈ 0.166 µM) | 1 (≈ 1.33 µM) | 1 (≈ 1.33 µM) | 0.06 (≈ 0.0798 µM) | 42 | MIC [32]: 4 µg/mL (≈ 5.32 µM); MIC [33]: 4 µg/mL (≈ 5.32 µM); MIC [34]: 4 µg/mL (≈ 5.32 µM); MIC [35]: 2 µg/mL (≈ 2.66 µM); MIC [36]: 8 µg/mL (≈ 10.6 µM); MIC [22]: 2 µg/mL (≈ 2.66 µM); MIC [37]: 2 µg/mL (≈ 2.66 µM); MIC [23]: 2 µg/mL (≈ 2.66 µM); MIC [38]: 2 µg/mL (≈ 2.66 µM); MIC [24]: 0.5 µg/mL; MIC [25]: 2 µg/mL (≈ 2.66 µM); MIC [26]: 0.25 µg/mL (≈ 0.332 µM); MIC [27]: 0.5 µg/mL; MIC [39]: 2 µg/mL (≈ 2.66 µM); fraction unbound at 35 min [28]: 0.801; MIC [40]: 2 µg/mL (≈ 2.66 µM); MIC [29]: 1 µg/mL (≈ 1.33 µM); MIC [30]: 1 µg/mL (≈ 1.33 µM); MIC [31]: 1 µg/mL (≈ 1.33 µM) |
